Read-outs that look alike come from different tables or passages of the source.
What was measured:
p53 Y220S mutant DBD [1] = target: T1, p53 Y220S mutant DBD (Homo sapiens, UniProt P04637, M133L/N239Y/N268D/V203A/Y220S); assay: DSF thermal shift assay, Y220S mutant; type: binding; details: 250 μM compound
T1 construct: the mutant p53 DBD (residues 94–312) of interest; 6xHis (N, cleaved yes); lipoyl domain of dihydrolipoamide acetyltransferase (Bacillus stearothermophilus) (N, cleaved yes); made in house; host or cells: E. coli C41
Procedure: (§1) Melting temperatures of the p53 mutants were determined by differential scanning fluorimetry (DSF) using the dye SYPRO Orange (Invitrogen), which quantitatively binds to hydrophobic protein patches that become exposed upon thermal unfolding. Real-time melt analyses were performed using either an Agilent MX3005P (heating rate of 270 K/h excitation/emission filters = 492/610 nm; Tables 2 and 4) or a Corbett Rotor-Gene 6000 real-time qPCR thermocycler (heating rate of 180 K/h, excitation/emission filters = 460/510 nm; Table 3). Tm measurements were performed with 8 μM p53 protein and 5–10 × SYPRO Orange (Life Technologies) in a 25 mM KPi (pH 7.2), 150 mM NaCl, and 1 mM TCEP assay buffer. For measurements of compound-induced Tm shifts (ΔTm), the assay buffer additionally contained 5% DMSO (v/v), with either 250 μM ligand or no ligand (control). ΔTm values were calculated as ΔTm = Tm (protein + compound) – Tm (protein). Native melting curves were measured in quadruplicate and compound-induced thermal shifts in triplicate or higher. Mean values ± SEM are given.

p53 Y220C mutant DBD [2] = target: T2, p53 Y220C mutant DBD (Homo sapiens, UniProt P04637, M133L/N239Y/N268D/V203A/Y220C); assay: DSF thermal shift assay, Y220C mutant; type: binding; details: 250 μM compound
T2 construct: the mutant p53 DBD (residues 94–312) of interest; 6xHis (N, cleaved yes); lipoyl domain of dihydrolipoamide acetyltransferase (Bacillus stearothermophilus) (N, cleaved yes); made in house; host or cells: E. coli C41
Procedure: as §1

p53 Y220N mutant DBD [3] = target: T3, p53 Y220N mutant DBD (Homo sapiens, UniProt P04637, M133L/N239Y/N268D/V203A/Y220N); assay: Isothermal titration calorimetry, Y220N mutant; type: binding; details: ITC, Nano ITC, 20 °C
T3 construct: the mutant p53 DBD (residues 94–312) of interest; 6xHis (N, cleaved yes); lipoyl domain of dihydrolipoamide acetyltransferase (Bacillus stearothermophilus) (N, cleaved yes); made in house; host or cells: E. coli C41
Procedure: (§2) Isothermal titration calorimetry (ITC) experiments for the Y220C and Y220S mutants were performed using a MicroCal (Amherst) iTC200 calorimeter as described.[14] Briefly, the cell unit contained 30–50 μM protein in a 25 mM KPi (pH 7.2), 150 mM NaCl, 1 mM TCEP, and 5% (v/v) DMSO assay buffer. The syringe contained 0.5–2 mM compound in the same buffer, using injection steps of 2 μL at a rate of 0.5 μL/s (initial injection: 0.5 μL) and 120 s spacing. […] Data analysis was performed using the MicroCal Origin software. ITC measurements for the Y220N mutant were carried out with the same buffers as above but using a Nano ITC microcalorimeter (TA Instruments) and injection steps of 8 μL, at a rate of 0.5 μL/s, and 200 s spacing. Data were processed using the NanoAnalyze software (Version 3.5.0) supplied with the instrument. All measurements were performed at 20 °C.

p53 Y220N mutant DBD [4] = target: T3, p53 Y220N mutant DBD; assay: DSF thermal shift assay, Y220N mutant; type: binding; details: 250 μM compound, Agilent MX3005P, 270 K/h, triplicate, mean ± SEM (Table 4)
Procedure: as §1

p53 Y220C mutant DBD [5] = target: T2, p53 Y220C mutant DBD; details: ITC, cited from earlier work
p53 Y220S mutant DBD [6] = target: T1, p53 Y220S mutant DBD; assay: Isothermal titration calorimetry, Y220S mutant; type: binding; details: for Kd: ITC, 20 °C, 25 mM KPi pH 7.2, 5% DMSO
Procedure: as §2

p53 Y220H mutant DBD = target: T4, p53 Y220H mutant DBD (Homo sapiens, UniProt P04637, M133L/N239Y/N268D/V203A/Y220H); assay: DSF thermal shift assay, Y220H mutant; type: binding; details: 250 μM compound, Agilent MX3005P, 270 K/h, triplicate, mean ± SEM (Table 4)
T4 construct: the mutant p53 DBD (residues 94–312) of interest; 6xHis (N, cleaved yes); lipoyl domain of dihydrolipoamide acetyltransferase (Bacillus stearothermophilus) (N, cleaved yes); made in house; host or cells: E. coli C41
Procedure: as §1

[7] = target: T5, p53 DBD WT (stabilized M133L/V203A/N239Y/N268D) (Homo sapiens, UniProt P04637, M133L/N239Y/N268D/V203A); assay: DSF thermal shift assay, WT (stabilized quadruple mutant DBD); type: binding; details: 250 μM compound, Agilent MX3005P, 270 K/h, triplicate, mean ± SEM (Table 4)
T5 construct: the mutant p53 DBD (residues 94–312) of interest; 6xHis (N, cleaved yes); lipoyl domain of dihydrolipoamide acetyltransferase (Bacillus stearothermophilus) (N, cleaved yes); made in house; host or cells: E. coli C41
Procedure: as §1

[8] = 8 μM protein, 5% DMSO, Rotor-Gene 6000, 180 K/h, quadruplicate, mean ± SEM (Table 3), read-out: Y220S mutant ΔTm
[9] = 8 μM protein, 5% DMSO, Rotor-Gene 6000, 180 K/h, quadruplicate, mean ± SEM (Table 3), read-out: Y220C mutant ΔTm
[10] = Agilent MX3005P, 270 K/h, triplicate, mean ± SEM (Table 4), read-out: ΔTm Y220S
[11] = Agilent MX3005P, 270 K/h, triplicate, mean ± SEM (Table 4), read-out: ΔTm Y220C

Row | ΔTm at 250 µM (p53 Y220S mutant DBD [1]; [8]) [°C] | ΔTm at 250 µM (p53 Y220C mutant DBD [2]; [9]) [°C] | Compound | Kd (p53 Y220C mutant DBD [5]; ref 17 (Bauer et al.)) [µM] | also measured
1 | 0.7 ± 0.1 | 1 ± 0.1 | CCn1c2ccccc2c2cc(CNC)ccc21 [PK083] |  | 
2 | 3.2 | 1.7 ± 0.1 | CNCc1ccc2c(c1)c1ccccc1n2CC(F)(F)F [PK9255] |  | ΔTm at 250 µM (p53 Y220S mutant DBD [1]; [10]): 3.2 °C; Kd (p53 Y220N mutant DBD [3]): 40 µM; ΔTm at 250 µM (p53 Y220N mutant DBD [4]): 1.4 ± 0.1 °C; Kd (p53 Y220C mutant DBD [5]; ref 14 (Bauer et al.)): 28 µM; Kd (p53 Y220S mutant DBD [6]): 16 ± 2 µM; Tighter binding to Y220S than to Y220C (ratio of Kd) (p53 Y220S mutant DBD [6]; Kd 16 μM (Y220S) vs 28 μM (Y220C)): about 2 times; ΔTm Y220H (p53 Y220H mutant DBD): no significant stabilizing effect; ΔTm at 250 µM (p53 Y220H mutant DBD): 0.2 ± 0.1 °C; ΔTm at 250 µM [7]: 0 °C; ΔTm at 250 µM (p53 Y220C mutant DBD [2]; [11]): 1.7 ± 0.1 °C
3 | 1.8 ± 0.1 | 2.4 ± 0.1 | CCn1c2ccc(CNC)cc2c2ccc(Br)cc21 [PK9284] | 14 ± 2 | 
4 |  |  | CCn1c2ccc(CN(C)C)cc2c2ccc(Br)cc21 [PK9285] |  | ΔTm at 250 µM (p53 Y220S mutant DBD [1]; [10]): 2.1 ± 0.1 °C; ΔTm at 250 µM (p53 Y220N mutant DBD [4]): 1.4 ± 0.1 °C; ΔTm at 250 µM (p53 Y220H mutant DBD): 0.2 °C; ΔTm at 250 µM [7]: -0.2 ± 0.1 °C; ΔTm at 250 µM (p53 Y220C mutant DBD [2]; [11]): 2 °C
5 | > 5 | 3.5 ± 0.1 | CNCc1ccc2c(c1)c1ccc(Br)cc1n2CC(F)(F)F [PK9301, 1-(7-Bromo-9-(2,2,2-trifluoroethyl)-9H-carbazol-3-yl)-N-methylmethanamine] |  | Kd (p53 Y220S mutant DBD [6]): 4 ± 1 µM
6 |  |  | CCn1c2ccc(CNC)cc2c2ccc(-c3ccoc3)cc21 [PK9321] |  | ΔTm at 250 µM (p53 Y220S mutant DBD [1]; [10]): 2.1 ± 0.1 °C; ΔTm at 250 µM (p53 Y220N mutant DBD [4]): 1.4 ± 0.1 °C; ΔTm at 250 µM (p53 Y220H mutant DBD): 0.7 ± 0.1 °C; ΔTm at 250 µM [7]: 0.2 ± 0.1 °C; ΔTm at 250 µM (p53 Y220C mutant DBD [2]; [11]): 3.1 ± 0.1 °C
7 | 1.2 | 3.7 ± 0.2 | CCn1c2ccc(CNC)cc2c2ccc(-c3ccc(C)s3)cc21 [PK9327] |  | 
8 | 1.5 ± 0.1 | 3.7 | CCn1c2ccc(CNC)cc2c2ccc(-c3cc(C)cs3)cc21 [PK9328] |  | 
9 | 1.1 ± 0.1 | 2.1 ± 0.1 | CCn1c2ccc(CNC)cc2c2ccc(-c3sccc3C)cc21 [PK9331] |  | 
10 | 1.2 ± 0.1 | 2.3 ± 0.1 | CCn1c2ccc(CNC)cc2c2ccc(-c3cnoc3)cc21 [PK9424] |  | 

Row | Compound | ΔTm at 250 µM (p53 Y220S mutant DBD [1]; [8]) [°C] | ΔTm at 250 µM (p53 Y220C mutant DBD [2]; [9]) [°C] | Kd (p53 Y220C mutant DBD [5]; ref 17 (Bauer et al.)) [µM] | also measured
11 | CCOc1ccc2c3cc(CNC)ccc3n(CC)c2c1 [PK9295] | 0.9 | 1.2 ± 0.1 | 62 ± 7 | 
12 | CCn1c2ccc(CNC)cc2c2ccc(-c3cccs3)cc21 [PK9318] | 2.1 | 4.4 ± 0.1 | 2.6 ± 0.4 | 
13 | CCn1c2ccc(CNC)cc2c2ccc(-c3ccco3)cc21 [PK9320] | 1.8 ± 0.1 | 3.4 | 4.1 ± 0.2 | 
14 | CCn1c2ccc(CNC)cc2c2ccc(-c3nccs3)cc21 [PK9322] | 3 | 3.4 | 8.3 ± 2.6 | 
15 | CCn1c2ccc(CNC)cc2c2ccc(-c3cscn3)cc21 [PK9323] | 3.7 ± 0.3 | 3.1 ± 0.1 | 5.3 ± 1.4 | ΔTm at 250 µM (p53 Y220S mutant DBD [1]; [10]): 3.7 ± 0.3 °C; ΔTm at 250 µM (p53 Y220N mutant DBD [4]): 0.7 ± 0.1 °C; Kd (p53 Y220S mutant DBD [6]): 5.9 ± 1.3 µM; ΔTm at 250 µM (p53 Y220H mutant DBD): -0.3 ± 0.1 °C; ΔTm at 250 µM [7]: -0.4 ± 0.2 °C; ΔTm at 250 µM (p53 Y220C mutant DBD [2]; [11]): 3.1 ± 0.1 °C
